Assay results: patent US5262522A, “Receptor for oncostatin M and leukemia inhibitory factor” (Immunex Corporation, priority 1991, dated 1993)

Tested on: oncostatin M
Assay: Oncostatin M binding assay (phthalate oil separation, Scatchard) on transfected COS-7 cells
Conditions: cells preincubated with non-radiolabeled LIF before 125I-oncostatin M (curve B)
From the text: Oncostatin M may be purified from cells in which the protein is naturally found, or from cells transformed with an expression vector encoding oncostatin M. One source of oncostatin M is phorbol ester-treated U937 cells, as described by Zarling et al., PNAS U.S.A. 83:9739 (1986). Purification of recombinant oncostatin M is described by Linsley et al., J. Biol. Chem. 264:4282-4289 (1989), which is hereby incorporated by reference in its entirety.
Oncostatin M may be radiolabeled using any suitable conventional procedure, such as the radioiodination procedure employed to radiolabel LIF in Example 1. The radio-iodination of oncostatin M has also been described by Linsley et al., supra.
The resulting radiolabeled oncostatin M may be substituted for radiolabeled LIF (using the same concentrations and other reaction parameters) in the assay procedures described in Example 1 in order to detect proteins and cells that bind oncostatin M. An assay for binding of ^125 I-oncostatin M to cells is also described in Linsley et al., supra.
COS-7 cells transfected with vector(s) encoding gp130 or LIF-R were assayed for the ability to bind oncostatin M. In separate transfections, COS-7 cells were transfected with the following combinations of vectors. […]

## gp130 and LIF-R: receptor of gp130 and LIF-R co-expressed on COS-7 cells co-transfected with vectors B10G and pHLIFR-65
  binding of oncostatin M after preincubation with LIF: did not bind oncostatin M in any measurable amount above that bound by the non-transfected COS-7 cells
